Assays:
Assay type in all cases: in vivo
[1] = system: yellow nutsedge (Cyperus esculentusi); experiment: Example 4 post-emergence greenhouse pot test, nutsedge; conditions: 0.25 lb ai/acre
Method: (§1) Test compositions containing sulfentrazone (75 DF formulation), quniclorac, (DRIVE® 75 DF Herbicide) or mixtures of sulfentrazone and quinclorac at ratios of 1:1 to 1:5, were diluted with water to provide the appropriate test rate concentrations. A nonionic surfactant (0.25%) was added to each test solution. The test weeds include crabgrass (Digitaria sp), Chickweed (Stellaria media), Hemp Sesbania (Sesbania exaltata), Kochia (Kochia scoparia), Ivyleaf Morningglory (Ipomoea hederacea), Redroot Pigweed (Amaranthus retroflexus) and yellow nutsedge (Cyperus esculentusi).
(§2) For post-emergence testing, three disposable 3 inch square pots for each rate of application of each herbicide were filled with a soil, comprised of peat moss, vermiculite, bark ash, pine bark, limestone and a wetting agent, to which 8 to 10 seeds were planted. The pots were placed in a greenhouse and watered daily, thus allowing the seeds to germinate and the foliage to develop for 22 days, 3 months for Kochia.
(§3) Pots designated for treatment were placed on a conveyor belt and the conveyor belt fed under a spray nozzle mounted about ten inches above the foliage. The spray of herbicidal solution was commenced and once stabilized; the pots were passed under the spray at a speed to receive a coverage equivalent of 30 gallons per acre. The application rates are those shown in Table 4 below for the individual herbicidal solutions and the mixture of sulfentrazone and quinclorac. The post-emergence pots were immediately placed in the green-house and not watered until 24 hours after treatment with the test solution. Thereafter they were regularly watered at ground level. The control of weeds was evaluated in each experimental test from 2 to 20 days after treatment (DAT). The results, shown as an average of the replications, were compared with results observed in untreated control pots in the same tests.
(§4) Percent control was determined by a method similar to the 0 to 100 rating system disclosed in “Research Methods in Weed Science,” 2nd ed., B. Truelove, Ed.; Southern Weed Science Society; Auburn University, Auburn, Ala., 1977.

[2] = system: Smooth Crabgrass (Digitaria ischaemum); experiment: Example 1 post-emergent turf plot test, 3 leaf/2 tiller crabgrass; conditions: 0.57 lb ai/acre
Method: (§5) The experimental design used randomized plots with post-emergent treatment and three replications per test trial. The size of each experimental plot was 4 feet by 6 feet. The application of each test composition was performed with pressurized back-pack sprayers, calibrated to spray 200 gallons per acre. Test compositions containing sulfentrazone (DISMISS™ Turf Herbicide), quniclorac, (FACET® 75 DF herbicide) or a mixture of sulfentrazone and quinclorac in a 1:3 ratio, prepared as described above, were diluted with water to provide the appropriate test rate concentrations.
(§6) The control of weeds was evaluated in each experimental plot from 7 to 41 days after treatment (DAT) of each test rate. The results, shown as an average of the replications, were compared with results observed in untreated control plots in the same trials.

[3] = system: Ivyleaf Morningglory (Ipomoea hederacea); experiment: Example 4 post-emergence greenhouse pot test, morningglory; conditions: 0.25 lb ai/acre
Method: as §1, §2, §3, §4

[4] = system: Field Violet (Viola arvensis); experiment: Example 2 post-emergent turf plot test, violet; conditions: 0.57 lb ai/acre
Method: The experimental design used randomized plots with post-emergent treatment and three replications per test trial. The size of each experimental plot was 4 feet by 6 feet. The application of each test composition was performed with pressurized back-pack sprayers, calibrated to spray 200 gallons per acre. Test compositions containing sulfentrazone (DISMISS™ Turf Herbicide), quinclorac, (FACET® 75 DF herbicide) or a mixture of sulfentrazone and quinclorac in a one to three ratio, prepared as described above, were diluted with water to provide the appropriate test rate concentrations.
The control of weeds was evaluated in each experimental plot from 1 to 27 days after treatment (DAT) of each test rate. The results, shown as an average of the replications, were compared with results observed in untreated control plots in the same trials.

[5] = system: Field Violet (Viola arvensis); experiment: Example 1 post-emergent turf plot test, violet; conditions: 0.57 lb ai/acre
Method: as §5, §6

[6] = system: Hemp Sesbania (Sesbania exaltata); experiment: Example 4 post-emergence greenhouse pot test, hemp sesbania; conditions: 0.25 lb ai/acre
Method: as §1, §2, §3, §4

[7] = system: Kochia (Kochia scoparia); experiment: Example 4 post-emergence greenhouse pot test, kochia; conditions: 0.25 lb ai/acre
Method: as §1, §2, §3, §4

[8] = system: Chickweed (Stellaria media); experiment: Example 4 post-emergence greenhouse pot test, chickweed; conditions: 0.25 lb ai/acre
Method: as §1, §2, §3, §4

Cc1nn(-c2cc(NS(C)(=O)=O)c(Cl)cc2Cl)c(=O)n1C(F)F [A, N-[2,4-dichloro-5-[4-(difluoromethyl)-4,5-dihydro-3-methyl-5-oxo-1H-1,2,4-triazol-1-yl]phenyl]methanesulfonamide] was tested, and the Percent Control ([1]; 2 DAT) was 25%, the Percent Control ([1]; 7 DAT) was 60% and the Percent Control ([1]; 14 DAT) was 85%. For the same molecule, the Percent Control ([1]; 20 DAT) was 95%, the “Percent Control” value ([2]; 7 DAT) was 70% and the “Percent Control” value ([2]; 14 DAT) was 78%. The “Percent Control” value ([2]; 21 DAT) was 86%, the “Percent Control” value ([2]; 28 DAT) was 75% and the “Percent Control” value ([2]; 41 DAT) was 71%. It also gave a Percent Control ([3]; 2 DAT) of 60%, a Percent Control ([3]; 7 DAT) of 80% and a Percent Control ([3]; 14 DAT) of 90%. The Percent Control ([3]; 20 DAT) was 99%, the “Percent Control” value ([4]; 7 DAT) was 66% and the “Percent Control” value ([4]; 14 DAT) was 78%. The “Percent Control” value ([4]; 21 DAT) was 69%, the “Percent Control” value ([5]; 7 DAT) was 64% and the “Percent Control” value ([5]; 14 DAT) was 75%. The “Percent Control” value ([5]; 21 DAT) was 76%, the “Percent Control” value ([5]; 28 DAT) was 70% and the “Percent Control” value ([5]; 41 DAT) was 75%. The Percent Control ([6]; 2 DAT) was 70%, the Percent Control ([6]; 7 DAT) was 85% and the Percent Control ([6]; 14 DAT) was 90%. It also gave a Percent Control ([6]; 20 DAT) of 90%, a Percent Control ([7]; 2 DAT) of 10% and a Percent Control ([7]; 7 DAT) of 70%. It also gave a Percent Control ([7]; 14 DAT) of 95%, a Percent Control ([7]; 20 DAT) of 99% and a Percent Control ([8]; 2 DAT) of 30%. For the same molecule, the Percent Control ([8]; 7 DAT) was 30%, the Percent Control ([8]; 14 DAT) was 10% and the Percent Control ([8]; 20 DAT) was 0%.

— US10897901B2, “Herbicidal composition” (FMC Corporation, priority 2007, dated 2021)
